Values of other authors, collected in patent publication EP4568488B1, “VEGETABLE- AND/OR FRUIT-CONTAINING SNACK FOOD PRODUCTS AND MANUFACTURE THEREOF” (PepsiCo International Limited, priority 2022, dated 2024).
Like-named read-outs stand apart in the source and are kept apart here.

For `CC1=C(/C=C/C(C)=C/C=C/C(C)=C/C=C/C=C(C)/C=C/C=C(C)/C=C/C2=C(C)CCCC2(C)C)C(C)(C)CCC1` [β-carotene], the “half-life time of β-carotene” value (convective hot-air drying of carrot slices at 45°C) is listed as 3.02 ± 0.04 h and the “half-life time of β-carotene” value (convective hot-air drying of carrot slices at 65°C) is listed as 1.43 ± 0.03 h.
